Row | SMILES | melting point
1 | O=C(N[C@@H](CO)c1nc2cc(Br)ccc2[nH]1)c1ccc(C(=O)N2CCCC2)c(Br)c1 | 114 to 116 °C
2 | Cc1nc2ccccc2c2ccc(F)cc12 | 92 to 93 °C
3 | CCC1CC(=O)N(Cc2cccc(C(=O)NC3CCCC3)c2)N=C1c1ccc(OC)c(OC2CCCC2)c1 (stereo not given) | 153 °C
4 | CCOc1c(C)c(C)c(OC)c(CN(C)CCOc2cc(C)ccc2C(C)C)c1C | 115 to 120 °C
5 | CN1CCC(c2c[nH]c3ccc(NS(=O)(=O)c4ccccc4)nc23)CC1 | 148 to 150 °C
6 | Clc1nccc(Oc2ccc3[nH]ccc3c2)n1 | 169 to 176 °C
7 | COC(=O)/C=C/c1ccc(-c2ccc(C)cc2)o1 | 113 to 115 °C
8 | Nc1cccc2c1sc1c(Nc3cccc(Br)c3)ncnc12 | 216 to 217 °C
9 | COC(=O)c1cc(CI)on1 | 91 to 95 °C
10 | O=C(O)CN1C(=O)COc2cc(F)c([N+](=O)[O-])cc21 | 177 to 183 °C
11 | Cc1noc(NS(=O)(=O)c2ccccc2)c1Cl | 140 to 143 °C
12 | O=C(O)Cn1cc(Br)cnc1=O | 183 to 185 °C
13 | COc1cccc(OC)c1C(=O)NC(=S)NNC(=O)c1cnc2ccccc2c1 | 242 to 243 °C
14 | O=C1[C@H]2CCC[C@H]2N(C(=O)CNCc2ccccc2)c2ccccc2N1Cc1ccccc1 (relative stereo) | 95 to 98 °C
15 | CCN1c2ncc(CC(OC(C)=O)c3ccncc3)cc2C(=O)N(C)c2ccc(Cl)nc21 (stereo not given) | 157 to 158 °C
16 | COc1ccc(COc2cc3c(cc2-c2cc(C=CC(=O)O)ccc2O)C(C)(C)CCC3(C)C)cc1 | 170 to 172 °C
17 | Cc1c(SCCN2CCNCC2)ccnc1CSc1nc2ccccc2[nH]1 | 166 to 168 °C
18 | C(#Cc1ccsc1)C1=CCN(Cc2c[nH]c3ncccc23)CC1 | 203 to 205 °C
19 | Cc1cnc2c(c1)COP(=S)(N(C)C)O2 (stereo not given) | 101 to 102 °C
20 | Cc1cc(-n2ccnc2)c2cccc(OCc3c(Cl)ccc(S(=O)(=O)N4CCC[C@H]4CO)c3Cl)c2n1 | 76 °C
21 | Cn1nc(Cl)c(C(=O)Cc2ccccc2)c1Cl | 94 to 96 °C
22 | CCC(C)c1ccc(NC(=O)c2sccc2S(=O)(=O)Nc2onc(C)c2Br)cc1 (stereo not given) | 205 to 208 °C
23 | CC1(C)CC(=O)C2C(=NC3=C(C(=O)CC(C)(C)C3)C2c2ccc(C#N)c([N+](=O)[O-])c2)C1 (stereo not given) | 274 to 275 °C
24 | C=C(C)c1cnn(-c2ccnc3cc(Cl)ccc23)c1 | 85.5 to 88 °C
25 | CC(C)Cn1cnc2c(N)nc3ccc(CCc4ccncc4)cc3c21 | 221 to 224 °C

Row | SMILES | melting point
26 | Cn1c(=O)c2cccc(N)c2c(=O)c2ccccc21 | 171 to 173 °C
27 | COc1cccc(CNC(=O)c2cc3c(s2)N(C)CNC3)c1 | 279 to 281 °C
28 | CC1(C)OC(=O)Nc2ccc(-c3cc(F)cc(Br)c3)cc21 | 182 to 183 °C
29 | O=[N+]([O-])c1ccccc1NCc1cc(Cl)cc(Cl)c1 | 138 to 140 °C
30 | Cc1cccc2sc(Sc3ccc4c(c3)CC[C@H]3N(C)C(=O)CC[C@]43C)nc12 | 134 to 142 °C
31 | N#CC1CCCCn2cccc21 (stereo not given) | 70 to 72 °C
32 | CCOC(=O)c1c(Cl)c2cc(Cl)cnc2[nH]c1=O | 228 °C
33 | O=C(NCc1ccc(Cl)cc1)c1cnc2ccc(-c3ccccc3)cc2c1O | 255 to 257 °C
34 | CCc1cc2c(s1)-n1c(nnc1C1CCCCC1)CN=C2c1ccccc1Cl | 116 to 119 °C
35 | CC1(C)CN(Cc2cc(F)ccc2F)c2cc(I)cnc2N1 | 168 to 169 °C
36 | O=c1c2c[nH]c3ccccc3c-2nn1-c1cnc2ccccc2c1 | > 350 °C
37 | Cc1cnc2[nH]cc(/C=C3\N=C(N4CCCCCC4)NC3=O)c2c1 | 324 to 326 °C
38 | O=C1C(CCO)Oc2cc([N+](=O)[O-])ccc2N1Cc1ccccc1Cl (stereo not given) | 106 to 108 °C
39 | Cn1cccc1C(=O)NCCN1CCC(Nc2nc3ccccc3n2Cc2ccc(CO)o2)CC1 | 182 °C
40 | CCOC(=O)c1cn(-c2cccnc2)cn1 | 102 to 103 °C
41 | Oc1ccc(N=C(C=COc2ccccc2)Oc2ccccc2)cc1 | 110 °C
42 | Cc1cc(C)cc(COC(=O)C(NC(=O)OC(C)(C)C)C(c2ccccc2)c2ccccc2)c1 (stereo not given) | 123 °C
43 | CCCn1cc2c(C3C(=O)Nc4ccc(Cl)cc43)ncnc2n1 (stereo not given) | 302 to 306 °C
44 | CN1CCN(c2cccc3ccc(OC(=O)c4ccccc4)cc23)CC1 | 82 to 82.5 °C
45 | CCN(CC)CCCCC1CCN(C(=O)N2c3cc(Cl)ccc3C(=O)Nc3cccnc32)CC1 | 126 to 127 °C
46 | Clc1ccc(C(Cl)Cl)c(C(Cl)Cl)c1 | 63 to 64 °C
47 | CCc1cc(=O)cc(CC)[nH]1 | 103 to 110 °C
48 | CC(=O)Nc1nc2c(s1)-c1nc(-c3cc(C#CC4CCNCC4)ccc3Cl)ncc1CC2 | 162 °C
49 | CCc1nc2cccc(C(=O)OC)c2n1Cc1ccc(-c2ccccc2-c2nc(=O)s[nH]2)cc1 | 203 to 205 °C
50 | CCCCCCc1cc2c(cc1C(=O)Oc1ccc(C(=O)OCc3ccccc3)cn1)C(C)(C)CCC2(C)C | 94 to 95 °C

Source: a melting point compilation (Tetko et al.; mined from patent text by program, amines drawn as free bases though some values may be those of a salt)
